# Source: ChEMBL document CHEMBL1124980, “2,4-Dihydro-3H-1,2,4-triazol-3-ones as anticonvulsant agents” (J Med Chem, 1990)
# Tested on: not listed separately
# Experiment: Tested for acute toxicity in mice after intraperitoneal administration
# Format: organism-based
# Conditions: mouse, in vivo, ip
row,SMILES,LD50
1,Cn1c(O)nnc1-c1ccccc1F,> 800 mg/kg
2,COc1nnc(-c2ccccc2)n1C,> 800 mg/kg
3,Cn1c(O)nnc1-c1ccc(Cl)cc1,> 800 mg/kg
4,Cc1ccc(-c2nnc(O)n2C)cc1,> 800 mg/kg
5,Oc1n[nH]c(-c2ccccc2)n1,> 800 mg/kg
6,Cn1c(O)nnc1-c1ccc(F)cc1,> 800 mg/kg
7,Cn1c(O)nnc1-c1ccncc1,> 800 mg/kg
8,Cn1c(O)nnc1-c1ccccc1,> 800 mg/kg
9,CCn1c(O)nnc1-c1ccccc1,> 800 mg/kg
10,COc1ccc(-c2nnc(O)n2C)cc1,> 800 mg/kg

# Tested on: not listed separately
# Experiment: Tested for acute toxicity in mice after intraperitoneal administration; Value ranges from 400-800
# Format: organism-based
# Conditions: mouse, in vivo, ip
row,SMILES,LD50
1,Cn1nc(-c2ccccc2)nc1O,800 mg/kg
2,Cn1c(O)nnc1-c1ccccc1Cl,800 mg/kg

# Tested on: Mus musculus
# Experiment: Tested for inhibition of pentylenetetrazole induced seizures in mice; Value is 1/16 of the LD50
# Format: functional
# Conditions: not given
row,SMILES,Activity
1,Cn1c(O)nnc1-c1ccc(Cl)cc1,>50 mg/kg
2,Cn1c(O)nnc1-c1ccc(F)cc1,>50 mg/kg

# Species on record: Mus musculus
# Experiment: Tested for inhibition of quinoline-induced seizures in mice.
# Format: functional
# Conditions: not given
row,SMILES,ED50
1,CCn1c(O)nnc1-c1ccc(Cl)cc1,~51 mg/kg
2,Cn1c(O)nnc1-c1ccccc1Cl,~65 mg/kg
3,CCCC(CCC)C(=O)O [VALPROIC ACID],> 256 mg/kg
4,O=C1CN=C(c2ccccc2Cl)c2cc([N+](=O)[O-])ccc2N1 [CLONAZEPAM],< 8 mg/kg
5,CCn1c(-c2ccc(Cl)cc2)nn(C)c1=O,26 mg/kg
6,CCC1(c2ccccc2)C(=O)NC(=O)NC1=O [PHENOBARBITAL],52 mg/kg
7,NC(=O)N1c2ccccc2C=Cc2ccccc21 [CARBAMAZEPINE],25 mg/kg

# Tested on: Mus musculus
# Experiment: Tested for inhibition of maximal electroshock -induced seizures in mice; Value is 1/8 of the LD50 range
# Format: functional
# Conditions: not given
row,SMILES,Activity
1,Cn1c(O)nnc1-c1ccccc1Cl,100 mg/kg
2,Cn1nc(-c2ccc(Cl)cc2)n(C)c1=O,100 mg/kg
3,CCn1nc(-c2ccc(Cl)cc2)n(CC)c1=O,50 mg/kg
4,CCn1c(-c2ccc(Cl)cc2)nn(C)c1=O,50 mg/kg
5,Cn1c(O)nnc1-c1ccccc1,>100 mg/kg
6,CCn1c(-c2ccccc2)nn(C)c1=O,100 mg/kg

# Species on record: Mus musculus
# Experiment: Tested for inhibition of bicuculline induced seizures in mice.
# Format: functional
# Conditions: not given
row,SMILES,ED50
1,CCCC(CCC)C(=O)O [VALPROIC ACID],28 mg/kg
2,O=C1CN=C(c2ccccc2Cl)c2cc([N+](=O)[O-])ccc2N1 [CLONAZEPAM],0.07 mg/kg
3,CCn1c(-c2ccc(Cl)cc2)nn(C)c1=O,15 mg/kg
4,CCC1(c2ccccc2)C(=O)NC(=O)NC1=O [PHENOBARBITAL],9 mg/kg

# Tested on: Mus musculus
# Experiment: (§1) Tested for acute toxicity in mice after intraperitoneal administration; Value ranges from 200-400 mg/kg
# Format: functional
# Conditions: ip
row,SMILES,LD50
1,CCn1c(O)nnc1-c1ccc(Cl)cc1,400 mg/kg

# Species on record: Mus musculus
# Experiment: Tested for inhibition of 3-mercaptopropanoic acid induced seizures in mice.
# Format: functional
# Conditions: not given
row,SMILES,ED50
1,O=C1CN=C(c2ccccc2Cl)c2cc([N+](=O)[O-])ccc2N1 [CLONAZEPAM],0.2 mg/kg
2,CCn1c(-c2ccc(Cl)cc2)nn(C)c1=O,31 mg/kg
3,CCC1(c2ccccc2)C(=O)NC(=O)NC1=O [PHENOBARBITAL],30 mg/kg
4,NC(=O)N1c2ccccc2C=Cc2ccccc21 [CARBAMAZEPINE],86 mg/kg

# Tested on: Mus musculus
# Experiment: Tested for inhibition of pentylenetetrazole induced seizures in mice; Value is 1/16 of the LD50 range
# Format: functional
# Conditions: not given
row,SMILES,Activity
1,CCn1c(O)nnc1-c1ccc(Cl)cc1,25 mg/kg
2,Cn1c(O)nnc1-c1ccccc1Cl,50 mg/kg
3,Cn1c(O)nnc1-c1ccccc1F,>50 mg/kg
4,Cn1nc(-c2ccc(Cl)cc2)n(C)c1=O,50 mg/kg
5,CCn1c(-c2ccc(Cl)cc2)nn(C)c1=O,20 mg/kg
6,Cn1c(O)nnc1-c1ccccc1,>50 mg/kg

# Species on record: Mus musculus
# Experiment: Tested for inhibition of strychnine-induced seizures in mice.
# Format: functional
# Conditions: not given
row,SMILES,ED50
1,CCCC(CCC)C(=O)O [VALPROIC ACID],> 200 mg/kg
2,O=C1CN=C(c2ccccc2Cl)c2cc([N+](=O)[O-])ccc2N1 [CLONAZEPAM],2 mg/kg
3,CCn1c(-c2ccc(Cl)cc2)nn(C)c1=O,~101 mg/kg
4,CCC1(c2ccccc2)C(=O)NC(=O)NC1=O [PHENOBARBITAL],52 mg/kg
5,NC(=O)N1c2ccccc2C=Cc2ccccc21 [CARBAMAZEPINE],61 mg/kg

# Target: GABA-A receptor; anion channel
# Experiment: In vitro binding affinity for GABA-A receptor in rat cortical or hippocampal membranes using [3H]flunitrazepam
# Conditions: not given
row,SMILES,IC50
1,CCn1c(O)nnc1-c1ccc(Cl)cc1,> 100 µM
2,Cn1c(O)nnc1-c1ccccc1Cl,> 100 µM
3,Cn1c(O)nnc1-c1ccc(Cl)cc1,> 100 µM
4,Cn1nc(-c2ccc(Cl)cc2)n(C)c1=O,> 100 µM
5,CCn1c(-c2ccc(Cl)cc2)nn(C)c1=O,> 100 µM
6,Cn1c(O)nnc1-c1ccc(F)cc1,> 100 µM
7,Cn1c(O)nnc1-c1ccncc1,> 100 µM
8,Cn1c(O)nnc1-c1ccccc1,> 100 µM

# Target: Glutamate NMDA receptor
# Experiment: Inhibition of [3H]CPP binding to N-methyl-D-aspartate glutamate receptor of rat cortical or hippocampal membranes
# Format: cell membranes, Membrane
# Conditions: not given
row,SMILES,IC50
1,CCn1c(O)nnc1-c1ccc(Cl)cc1,> 100 µM
2,Cn1c(O)nnc1-c1ccccc1Cl,> 100 µM
3,Cn1c(O)nnc1-c1ccc(Cl)cc1,> 100 µM
4,Cn1nc(-c2ccc(Cl)cc2)n(C)c1=O,> 100 µM
5,CCn1c(-c2ccc(Cl)cc2)nn(C)c1=O,> 100 µM
6,Cn1c(O)nnc1-c1ccc(F)cc1,> 100 µM
7,Cn1c(O)nnc1-c1ccncc1,> 100 µM
8,Cn1c(O)nnc1-c1ccccc1,> 100 µM

# Tested on: Mus musculus
# Experiment: Tested for inhibition of maximal electroshock -induced seizures in mice; Value is 1/16 of the LD50
# Format: functional
# Conditions: not given
row,SMILES,Activity
1,Cn1c(O)nnc1-c1ccc(Cl)cc1,>50 mg/kg
2,Cn1c(O)nnc1-c1ccc(F)cc1,>50 mg/kg

# Tested on: not listed separately
# Experiment: as §1
# Format: organism-based
# Conditions: mouse, in vivo, ip
row,SMILES,LD50
1,CCn1nc(-c2ccc(Cl)cc2)n(CC)c1=O,400 mg/kg
2,CCn1c(-c2ccc(Cl)cc2)nn(C)c1=O,400 mg/kg

# Species on record: Mus musculus
# Experiment: Tested for inhibition of pentylenetetrazole induced seizures in mice.
# Format: functional
# Conditions: not given
row,SMILES,ED50
1,O=C1CN=C(c2ccccc2Cl)c2cc([N+](=O)[O-])ccc2N1 [CLONAZEPAM],0.06 mg/kg
2,CCn1c(-c2ccc(Cl)cc2)nn(C)c1=O,17 mg/kg
3,CCC1(c2ccccc2)C(=O)NC(=O)NC1=O [PHENOBARBITAL],24 mg/kg
4,NC(=O)N1c2ccccc2C=Cc2ccccc21 [CARBAMAZEPINE],> 200 mg/kg

# Tested on: Mus musculus
# Experiment: Tested for inhibition of pentylenetetrazole induced seizures in mice; Value is 1/4 of the LD50 range
# Format: functional
# Conditions: not given
row,SMILES,Activity
1,CCn1c(-c2ccccc2)nn(C)c1=O,200 mg/kg

# Tested on: Mus musculus
# Experiment: Tested for inhibition of pentylenetetrazole induced seizures in mice; Value is 1/8 of the LD50 range
# Format: functional
# Conditions: not given
row,SMILES,Activity
1,Cn1nc(-c2ccccc2)nc1O,100 mg/kg
2,CCn1nc(-c2ccc(Cl)cc2)n(CC)c1=O,50 mg/kg

# Species on record: Mus musculus
# Experiment: Tested for inhibition of maximal electroshock -induced seizures in mice.
# Format: functional
# Conditions: not given
row,SMILES,ED50
1,CCCC(CCC)C(=O)O [VALPROIC ACID],> 200 mg/kg
2,O=C1CN=C(c2ccccc2Cl)c2cc([N+](=O)[O-])ccc2N1 [CLONAZEPAM],50 mg/kg
3,CCn1c(-c2ccc(Cl)cc2)nn(C)c1=O,48 mg/kg
4,CCC1(c2ccccc2)C(=O)NC(=O)NC1=O [PHENOBARBITAL],20 mg/kg

# Tested on: not listed separately
# Experiment: Tested for acute toxicity in mice after intraperitoneal administration; Value ranges from 400-800 mg/kg
# Format: organism-based
# Conditions: mouse, in vivo, ip
row,SMILES,LD50
1,Cn1nc(-c2ccc(Cl)cc2)n(C)c1=O,800 mg/kg
2,CCn1c(-c2ccccc2)nn(C)c1=O,800 mg/kg

# Tested on: Mus musculus
# Experiment: Tested for inhibition of pentylenetetrazole induced seizures in mice; Value is 1/8 of the LD50
# Format: functional
# Conditions: not given
row,SMILES,Activity
1,Cc1ccc(-c2nnc(O)n2C)cc1,>100 mg/kg
2,CCn1c(O)nnc1-c1ccccc1,>100 mg/kg

# Tested on: Gerbillinae
# Experiment: Tested for its effect on Hypoxia induced neuronal damage
# Format: functional
# Conditions: not given
row,SMILES,Damage score
1,CCn1c(O)nnc1-c1ccc(Cl)cc1,2.64
2,Cn1c(O)nnc1-c1ccccc1Cl,2.95
3,CCn1c(-c2ccc(Cl)cc2)nn(C)c1=O,0.97

# Species on record: Mus musculus
# Experiment: Tested for inhibition of maximal electroshock -induced seizures in mice; Value ranges from 13-25
# Format: functional
# Conditions: not given
row,SMILES,ED50
1,NC(=O)N1c2ccccc2C=Cc2ccccc21 [CARBAMAZEPINE],25 mg/kg

# Tested on: Gerbillinae
# Experiment: Tested for its effect on hippocampal neuronal damage in gerbils activity
# Format: functional
# Conditions: not given
row,SMILES,Damage score
1,CCn1c(O)nnc1-c1ccc(Cl)cc1,0.33
2,Cn1c(O)nnc1-c1ccccc1Cl,0.22
3,CCn1c(-c2ccc(Cl)cc2)nn(C)c1=O,0.33

# Species on record: Mus musculus
# Experiment: Tested for inhibition of pentylenetetrazole induced seizures in mice; Value ranges from 100-200
# Format: functional
# Conditions: not given
row,SMILES,ED50
1,CCCC(CCC)C(=O)O [VALPROIC ACID],200 mg/kg
